From patent US20220305012A1, “L[…] TREATING SLEEP ISSUES” (EISAI R&D MANAGEMENT CO., LTD., priority 2019, published 2022)

Experiments:
Assay type in all cases: in vivo, human
[1] = tested on: Subjects Having Insomnia Disorder; assay: Example 2: latency to persistent sleep (LPS), polysomnography
Experimental: As used herein, the term “latency to persistent sleep”, abbreviated as “LPS.” means the minutes from lights off to the first epoch of 20 consecutive epochs (10 minutes) of non-wakefulness.
(§1) In some embodiments, a sleep parameter is determined objectively using polysomnography. Polysomnography is the monitoring of multiple electrophysiological parameters during sleep and generally includes measurement of EEG activity, electro-oculographic activity and electromyographic activity, as well as other measurements.
LPS—latency to persistent sleep: minutes from lights off to the first epoch of 20 consecutive epochs of non-wakefulness.
(§2) The treatment period lasted for 31 days. Subjects were randomized in a double-blind manner and received placebo, a tablet containing 5 mg of lemborexant, a tablet containing 10 mg of lemborexant, or a tablet containing 6.25 mg of zolpidem ER.
(§3) Within 5 minutes of the subject's mean habitual bedtime, study drug was administered and an overnight polysomnogram recording was initiated. At completion of the recording the following morning (Day 2), postural stability and cognitive performance were assessed. On the Day 2 evening, subjects returned to the clinic and a blood sample was collected before administering study drug, and then study drug was administered within 5 minutes of the subject's mean habitual bedtime. Again, a polysomnogram recording was initiated. The next morning (Day 3), postural stability and cognitive performance were assessed. A blood sample was also collected.
(§4) On Day 29, subjects returned to the clinic. Study drug was administered within 5 minutes of the subject's mean habitual bedtime and a polysomnogram recording was conducted. On the following morning (Day 30), postural stability and cognitive performance were assessed. After 1.5 hours of waketime, subjects rated their morning sleepiness level.
(§5) On the evening of Day 30, subjects returned to the clinic. A pre-dose blood sample was collected and study drug was again administered within 5 minutes of the subject's mean habitual bedtime. A polysomnogram recording was initiated. The following morning (Day 31), postural stability and cognitive performance were assessed and a blood sample was obtained. The ISI, FSS, EQ-5D-3L and PGI-Insomnia were administered. Blood and urine samples were collected for routine safety assessment. An electrocardiogram was performed, and vital signs and weight were assessed. The eC-SSRS was then administered to the subject. At 1.5 hours after waketime, subjects rated their morning sleepiness level.
The primary endpoint was to determine the change from baseline for mean latency to persistent sleep on days 29 and 30 of 5 mg or 10 mg lemborexant compared to placebo.

[2] = tested on: Subjects Having Insomnia Disorder; assay: Example 2: subjective sleep onset latency (sSOL), sleep diary
Source text: As used herein, the term “subjective sleep onset latency”, abbreviated as “sSOL”, means the estimated number of minutes from the time that the subject attempted to sleep until sleep onset. In some embodiments, sSOL is derived from data entered in a subject's Sleep Diary.
In some embodiments, sleep diaries were used to assess sleep parameters reported by subjects (i.e., subjective assessments) including subjective sleep onset latency (sSOL), subjective sleep efficiency (sSE), subjective WASO (sWASO), and subjective total sleep time (sTST). Subjects were instructed to complete the Sleep Diary developed based on the consensus Sleep Diary as described in Carney et al., “The consensus sleep diary: standardizing prospective sleep self-monitoring,” Sleep 2012; 35(2):287-302. In some embodiments, the Sleep Diary was used to assess the subject's global perception of quality of sleep on the previous night with the following question: “How would you rate the quality of your sleep last night?” Subjects rated the quality of their sleep on a scale from 1 to 9, with 1 being extremely poor and 9 being extremely good. In some embodiments, the Sleep Diary was used to assess subjective ratings of morning sleepiness with the following question: “How alert/sleepy do you feel this morning?” Subjects rated their sleepiness/alertness level on a Likert scale from 1 to 9, with 1 being extremely sleepy and 9 being extremely alert.
sSOL—subjective sleep onset latency: estimated minutes from the time that the subject attempted to sleep until sleep onset.
as §2
Once home, the subject ingested study drug each night prior to bedtime and completed their sleep diary within 1 hour of waketime.

[3] = tested on: Subjects Having Insomnia Disorder; assay: Example 2: wake after sleep onset (WASO), polysomnography
Experimental: as §1
WASO—wake after sleep onset: minutes of wake from the onset of persistent sleep until lights on.
as §2, §3, §4, §5
Another key secondary endpoint was to determine the change from baseline for mean wake after sleep onset on Days 29 and 30 after administration of 5 mg or 10 mg of lemborexant, compared to placebo.

[4] = 5 mg, First 7 Nights of Treatment
[5] = 5 mg, Last 7 Nights of Treatment
[6] = 10 mg, First 7 Nights of Treatment
[7] = 10 mg, Last 7 Nights of Treatment
[8] = 6.25 mg, First 7 Nights of Treatment
[9] = 6.25 mg, Last 7 Nights of Treatment
[10] = Days 29/30, Zolpidem ER 6.25 mg

## Cc1ncc(OC[C@@]2(c3cccc(F)c3)C[C@H]2C(=O)Nc2ccc(F)cn2)c(C)n1 [Lemborexant, (1R,2S)-2-(((2,4-dimethylpyrimidin-5-yl)oxy)methyl)-2-(3-fluorophenyl)-N-(5-fluoropyridin-2-yl)cyclopropanecarboxamide]
[1]; 5 mg vs zolpidem ER 6.25 mg, Days 1/2
  LPS LSM treatment ratio: Lemborexant/Zolpidem: 0.874
[1]; 5 mg vs zolpidem ER 6.25 mg, Days 29/30
  LPS LSM treatment ratio: Lemborexant/Zolpidem: 0.634
[1]; 5 mg, Days 1/2
  LPS LSM treatment ratio: Active/Placebo: 0.850
  LPS, Mean: 28.27 min
  LPS, Median: 21.63 min
[1]; 5 mg, Days 29/30
  LPS LSM treatment ratio: Active/Placebo: 0.773
  LPS, Mean: 25.84 min
  LPS, Median: 18.75 min
[1]; 5 mg, Study Baseline
  LPS, Mean: 44.86 min
  LPS, Median: 33.13 min
[1]; 5 mg, at Days 1/2
  LPS Change from Study Baseline, Mean: -16.59 min
  LPS Change from Study Baseline, Median: -10.00 min
[1]; 5 mg, at Days 29/30
  LPS Change from Study Baseline, Mean: -19.53 min
  LPS Change from Study Baseline, Median: -12.00 min
[1]; 10 mg vs zolpidem ER 6.25 mg, Days 1/2
  LPS LSM treatment ratio: Lemborexant/Zolpidem: 0.818
[1]; 10 mg vs zolpidem ER 6.25 mg, Days 29/30
  LPS LSM treatment ratio: Lemborexant/Zolpidem: 0.594
[1]; 10 mg, Days 1/2
  LPS LSM treatment ratio: Active/Placebo: 0.795
  LPS, Mean: 25.13 min
  LPS, Median: 21.75 min
[1]; 10 mg, Days 29/30
  LPS LSM treatment ratio: Active/Placebo: 0.723
  LPS, Mean: 22.75 min
  LPS, Median: 19.25 min
[1]; 10 mg, Study Baseline
  LPS, Mean: 44.61 min
  LPS, Median: 38.50 min
[1]; 10 mg, at Days 1/2
  LPS Change from Study Baseline, Mean: -19.48 min
  LPS Change from Study Baseline, Median: -10.50 min
[1]; 10 mg, at Days 29/30
  LPS Change from Study Baseline, Mean: -21.46 min
  LPS Change from Study Baseline, Median: -16.25 min
[1]; all lemborexant treatment groups, relative to baseline, placebo group, and zolpidem group (Table 13)
  mean latency to persistent sleep: reduced
[2]; [4]
  sSOL Change from Study Baseline, Mean (SD): −22.54 (32.812) minutes
  sSOL Change from Study Baseline, Median: -14.86 min
  sSOL, Mean (SD): 42.39 (28.075) minutes
  sSOL, Median: 29.64 min
[2]; [5]
  sSOL Change from Study Baseline, Mean (SD): −25.20 (34.854) minutes
  sSOL Change from Study Baseline, Median: -18.54 min
  sSOL, Mean (SD): 38.80 (28.028) minutes
  sSOL, Median: 30.36 min
[2]; 5 mg, Study Baseline
  sSOL, Mean (SD): 65.79 (43.530) minutes
  sSOL, Median: 58.57 min
[2]; [6]
  sSOL Change from Study Baseline, Mean (SD): −21.88 (29.269) minutes
  sSOL Change from Study Baseline, Median: -15.00 min
  sSOL, Mean (SD): 38.64 (32.092) minutes
[2]; [7]
  sSOL Change from Study Baseline, Mean (SD): −24.79 (34.068) minutes
  sSOL Change from Study Baseline, Median: -17.14 min
  sSOL, Mean (SD): 36.51 (31.059) minutes
  sSOL, Median: 27.50 min
[2]; 10 mg, Study Baseline
  sSOL, Mean (SD): 60.88 (42.514) minutes
  sSOL, Median: 53.57 min
[2]; all lemborexant treatment groups, relative to baseline, placebo and zolpidem treatment groups (Table 18)
  mean subjective sleep onset latency: reduced
[3]; Days 1/2, Lemborexant 5 mg
  Wake After Sleep Onset, Change from Study Baseline, Mean (SD): −49.96 (39.578)
  Wake After Sleep Onset, Change from Study Baseline, Median: −46.75
  Wake After Sleep Onset, Mean (SD): 63.48 (31.484)
  Wake After Sleep Onset, Median: 58.38
[3]; Days 1/2, Lemborexant 10 mg
  Wake After Sleep Onset, Change from Study Baseline, Mean (SD): −59.59
  Wake After Sleep Onset, Change from Study Baseline, Median: −54.50
  Wake After Sleep Onset, Mean (SD): 55.23
  Wake After Sleep Onset, Median: 48.75
[3]; Days 29/30, Lemborexant 5 mg
  Wake After Sleep Onset, Change from Study Baseline, LSM treatment difference: Lemborexant-Zolpidem: −7.72 (2.876)
  Wake After Sleep Onset, Change from Study Baseline, Mean (SD): −43.89 (39.264)
  Wake After Sleep Onset, Change from Study Baseline, Median: −39.50
  Wake After Sleep Onset, Mean (SD): 69.10 (34.533)
  Wake After Sleep Onset, Median: 62.63
[3]; Days 29/30, Lemborexant 10 mg
  Wake After Sleep Onset, Change from Study Baseline, LSM treatment difference: Lemborexant-Zolpidem: −9.10
  Wake After Sleep Onset, Change from Study Baseline, Mean (SD): −46.43
  Wake After Sleep Onset, Change from Study Baseline, Median: −46.50
  Wake After Sleep Onset, Mean (SD): 68.60
  Wake After Sleep Onset, Median: 62.50
[3]; all lemborexant treatment groups, relative to baseline, placebo and zolpidem treatment groups (Table 15)
  mean wake after sleep onset: reduced

## Cc1ccc(-c2nc3ccc(C)cn3c2CC(=O)N(C)C)cc1 [Zolpidem ER, zolpidem, reference compound]
[1]; 6.25 mg, Days 1/2
  LPS LSM treatment ratio: Active/Placebo: 0.972
  LPS, Mean: 31.87 min
  LPS, Median: 27.00 min
[1]; 6.25 mg, Days 29/30
  LPS LSM treatment ratio: Active/Placebo: 1.218
  LPS, Mean: 37.11 min
  LPS, Median: 28.50 min
[1]; 6.25 mg, Study Baseline
  LPS, Mean: 44.52 min
  LPS, Median: 31.50 min
[1]; 6.25 mg, at Days 1/2
  LPS Change from Study Baseline, Mean: -12.56 min
  LPS Change from Study Baseline, Median: -5.63 min
[1]; 6.25 mg, at Days 29/30
  LPS Change from Study Baseline, Mean: -7.51 min
  LPS Change from Study Baseline, Median: -2.88 min
[2]; [8]
  sSOL Change from Study Baseline, Mean (SD): −16.23 (29.531) minutes
  sSOL Change from Study Baseline, Median: -10.00 min
  sSOL, Mean (SD): 44.61 (27.566) minutes
  sSOL, Median: 34.29 min
[2]; [9]
  sSOL Change from Study Baseline, Mean (SD): −17.04 (30.683) minutes
  sSOL Change from Study Baseline, Median: -10.71 min
  sSOL, Mean (SD): 43.64 (30.649) minutes
  sSOL, Median: 37.50 min
[2]; 6.25 mg, Study Baseline
  sSOL, Mean (SD): 60.54 (36.350) minutes
  sSOL, Median: 53.21 min
[3]; Days 1/2, Zolpidem ER 6.25 mg
  Wake After Sleep Onset, Change from Study Baseline, Mean (SD): −44.36 (38.074)
  Wake After Sleep Onset, Change from Study Baseline, Median: −44.13
  Wake After Sleep Onset, Mean (SD): 69.92 (33.517)
  Wake After Sleep Onset, Median: 62.00
[3]; [10]
  Wake After Sleep Onset, Change from Study Baseline, Mean (SD): −36.50 (43.406)
  Wake After Sleep Onset, Change from Study Baseline, Median: −34.63
  Wake After Sleep Onset, Mean (SD): 77.71 (39.932)
  Wake After Sleep Onset, Median: 71.00
